Patent US20240034733A1, “KRAS G12D INHIBITORS” (Mirati Therapeutics, Inc., priority 2020, published 2024)

Experiments:
KRas G12D = molecular target: T1, KRas G12D (Homo sapiens, UniProt P01116, G12D); experiment: KRas G12D Surface Plasmon Resonance (SPR) Binding Assay; conditions: Biacore T200, 20° C., 1:1 binding model, read-out: KD (nM), Determination of KRas G12D KD
T1 construct: Avidin-tag (so in the source)
Protocol: This Example illustrates that exemplary compounds of the present invention bind to KRas G12D as measured by surface plasmon resonance (SPR).
Briefly, 1 L of 1.05×HBS-Mg buffer (262.5 mM BioUltra Hepes, pH 7.5, 157.5 mM NaCl, 105 mM MgCl2, 0.525 mM TCEP, 0.0305% Brij-35) was prepared and filter sterilized using a 0.22 μm bottle top filter. Approximately 50 mL of 1.05×HBS-Mg buffer was removed and saved for future dilutions. A 50 mL aliquot of DMSO (Sigma Aldrich DMSO Lot. #SHBK2079) was added and continued to stir for 10 minutes, creating the final 1.0×HBS-Mg buffer (250 mM BioUltra Hepes pH 7.5, 150 mM NaCl, 100 mM MgCl2, 0.5 mM TCEP, 0.03% Brij-35).
Biacore T200 instrument was primed using 1.0×HBS-Mg buffer before docking a GE Streptavidin (SA) chip and then primed two additional times prior to beginning the immobilization step. All immobilized protein mixtures were created using 3-5 mg/mL Biotinylated Avidin-tagged KRAS protein using the following immobilization settings: SA chip type, 1 flow cells per cycle, 720 second contact time, and 5 μL/min flow rate. Normalization of the detector was also performed during the immobilization step using the GE BiaNormalize solution.
All compounds were diluted to 10 mM in 100% DMSO prior to being diluted 20× in 1.05× buffer. Another 10× dilution was created using 1.0× buffer prior to performing a series of 3×dilutions to create a compound concentration curve using the following assay settings: 20° C. analysis temperature, General Settings=10 Hz data collection rate and multi-detection; Assay Steps=all set to LMW kinetics; Cycle Types=LMW kinetics (60 s contact time, 120 s dissociation time, 100 μL/min flow rate, extra wash after injection with 50% DMSO, flow path 1, 2, 3, 4); Flow path detection=2−1, 4−3). Data evaluation was performed using the Biacore T200 Evaluation software and data fit to 1:1 binding model.

[1] = molecular target: T2, GDP-loaded recombinant human KRAS G12D (Homo sapiens, UniProt P01116, G12D); experiment: KRas G12D Binding Assay (TR-FRET displacement of Cy5 labelled tracer); conditions: 60 minute incubation at 22° C.
T2 construct: corresponding to amino acids 1:169, produced at Array BioPharma; biotin (biotinylated); made in house
T2 sequence (P01116 1-169 isoform P01116-2 G12D): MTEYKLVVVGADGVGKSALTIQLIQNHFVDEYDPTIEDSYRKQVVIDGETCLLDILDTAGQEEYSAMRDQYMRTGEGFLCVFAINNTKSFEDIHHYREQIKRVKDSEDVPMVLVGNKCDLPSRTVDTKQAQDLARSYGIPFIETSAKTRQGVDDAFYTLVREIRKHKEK
Protocol: This Example illustrates that exemplary compounds of the present invention bind to KRas G12D and are capable of displacing a labeled tracer ligand occupying the KRas G12D binding site.
The ability of a compound to bind to KRAS G12D was measured using a TR-FRET displacement assay. Biotinylated GDP-loaded recombinant human KRAS G12D (corresponding to amino acids 1:169, produced at Array BioPharma) was incubated with a custom-made Cy5 labelled tracer, europium labelled streptavidin and compound (2% DMSO final) in buffer (50 mM HEPES [pH 7.5], 5 mM MgCl2, 0.005% Tween-20 & 1 mM DTT). After a 60 minute incubation at 22° C., the reaction was measured using a PerkinElmer EnVision multimode plate reader via TR-FRET dual wavelength detection, and the percent of control (POC) calculated using a ratiometric emission factor. […] The POC values were fit to a 4-parameter logistic curve and the IC50 value was determined as the concentration where the curve crosses 50 POC.

[2] = test system: KRas G12D-mediated phosphorylation of ERK; experiment: Inhibition of KRas G12D-mediated phosphorylation of ERK in AGS cells; type: cell-based; conditions: Homo sapiens; AGS cells expressing G12D, 3 hours, phospho-ERK normalized to GAPDH
Protocol: AGS cells (ATCC CRL-1739) expressing G12D were grown in DMEM medium supplemented with 10% fetal bovine serum, 10 mM HEPES, and Penicillin/Streptomycin. Cells were plated in tissue culture treated 96 well plates at a density of 40,000 cells/well and allowed to attach for 12-14 hours. Diluted compounds were then added in a final concentration of 0.5% DMSO. After 3 hours, the medium was removed, 150 μl of 4.0% formaldehyde was added and the plates incubated at room temperature for 20 minutes. The plates were washed with PBS, and permeabilized with 150p of ice cold 100% methanol for 10 minutes. Non-specific antibody binding to the plates was blocked using 100 μL Licor blocking buffer (Li-Cor Biotechnology, Lincoln NE) for 1 hour at room temperature.
The amount of phosho-ERK was determined using an antibody specific for the phosphorylated form of ERK and compared to the amount of GAPDH. Primary antibodies used for the detection were added as follows: Phospho-ERK (Cell Signaling cs-9101) diluted 1:500 and GAPDH (Millipore MAB374) diluted 1:5000 in Licor block+0.05% Tween 20. The plates were incubated for 2 hours at room temperature. The plates were washed with PBS+0.05% Tween 20.
Secondary antibodies used to visualize primary antibodies were added as follows: Anti-rabbit-680 diluted 1:1000 and Anti-mouse-800 diluted 1:1000 both in Licor block+0.05% Tween20, and were incubated for 1 hour at room temperature. The plates were washed with PBS +0.05% Tween 20. A 100 μl aliquot of PBS was added to each well and the plates were read on a Li-Cor Odyssey CLX plate reader phospho-ERK (Thr202/Tyr204) signal was normalized to the GAPDH signal for each well and percent of DMSO control values were calculated. IC50 values were generated using a 4-parameter fit of the dose response curve

T1 sequence (P01116 1-188 isoform P01116-2 G12D): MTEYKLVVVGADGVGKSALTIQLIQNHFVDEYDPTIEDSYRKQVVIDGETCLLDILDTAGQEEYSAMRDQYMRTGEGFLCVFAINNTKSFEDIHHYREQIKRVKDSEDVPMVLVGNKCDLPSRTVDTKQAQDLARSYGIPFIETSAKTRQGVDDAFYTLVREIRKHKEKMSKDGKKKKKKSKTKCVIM

SMILES	Kd (KRas G12D) [nM]	IC50 [1] [nM]	IC50 [2] [nM]
CN1CCC[C@H]1COc1nc(N2C[C@H]3CC[C@@H](C2)N3)c2ccc(-c3cc(O)cc4ccccc34)cc2n1 [Example 10, 4-(4-((1R,5S)-3,8-diazabicyclo[3.2.1]octan-3-yl)-2-(((S)-1-methylpyrrolidin-2-yl)methoxy)quinazolin-7-yl)naphthalen-2-ol]	19	22.9	5660
CN1C[C@H](F)C[C@H]1COc1nc(N2C[C@H]3CC[C@@H](C2)N3)c2ccc(-c3cc(O)cc4ccccc34)c(F)c2n1 [Example 29, 4-(4-((1R,5S)-3,8-diazabicyclo[3.2.1]octan-3-yl)-8-fluoro-2-(((2S,4R)-4-fluoro-1-methylpyrrolidin-2-yl)methoxy)quinazolin-7-yl)naphthalen-2-ol]	5	1.8	779
CN1CC(F)(F)C[C@H]1COc1nc(N2C[C@H]3CC[C@@H](C2)N3)c2ccc(-c3cc(O)cc4ccccc34)c(F)c2n1 [Example 31, 4-(4-((1R,5S)-3,8-diazabicyclo[3.2.1]octan-3-yl)-2-(((S)-4,4-difluoro-1-methylpyrrolidin-2-yl)methoxy)-8-fluoroquinazolin-7-yl)naphthalen-2-ol]	121	297	8500
Fc1c(-c2cccc3cccc(Cl)c23)ccc2c(N3C[C@H]4CC[C@@H](C3)N4)nc(OCC34CCCN3CCC4)nc12 [Example 2, 4-((1R,5S)-3,8-diazabicyclo[3.2.1]octan-3-yl)-7-(8-chloronaphthalen-1-yl)-8-fluoro-2-((tetrahydro-1H-pyrrolizin-7a(5H)-yl)methoxy)quinazoline]	8	6.1	4540
CN1CCC[C@H]1COc1nc(N2CCNC3(CC3)C2)c2ccc(-c3cc(O)cc4ccccc34)c(F)c2n1 [Example 12, (S)-4-(8-fluoro-2-((1-methylpyrrolidin-2-yl)methoxy)-4-(4,7-diazaspiro[2.5]octan-7-yl)quinazolin-7-yl)naphthalen-2-ol]	110		5560
CN1CCC[C@H]1COc1nc(N2C[C@H]3CC[C@@H](C2)N3)c2ccc(-c3cccc4ccc(F)cc34)c(F)c2n1 [Example 13, 4-((1R,5S)-3,8-diazabicyclo[3.2.1]octan-3-yl)-8-fluoro-7-(7-fluoronaphthalen-1-yl)-2-(((S)-1-methylpyrrolidin-2-yl)methoxy)quinazoline]	78	61.9	5560
CN1CCC[C@H]1COc1nc(N2C[C@H]3CC[C@@H](C2)N3)c2cc(Cl)c(-c3cc(O)cc4ccccc34)c(F)c2n1 [Example 7, 4-(4-((1R,5S)-3,8-diazabicyclo[3.2.1]octan-3-yl)-6-chloro-8-fluoro-2-(((S)-1-methylpyrrolidin-2-yl)methoxy)quinazolin-7-yl)naphthalen-2-ol]	9	11.2	1420
CN1CCC[C@H]1COc1nc(N2C[C@H]3CC[C@@H]2CN3)c2cnc(-c3cc(O)cc4ccccc34)c(F)c2n1 [Example 15, 4-(4-((1R,4R)-2,5-diazabicyclo[2.2.2]octan-2-yl)-8-fluoro-2-(((S)-1-methylpyrrolidin-2-yl)methoxy)pyrido[4,3-d]pyrimidin-7-yl)naphthalen-2-ol]	93		7120
Cc1cc2[nH]ncc2c(-c2ccc3c(N4C[C@H]5CC[C@@H](C4)N5)nc(OC[C@@H]4CCCN4C)nc3c2F)c1C [Example 30, 4-((1R,5S)-3,8-diazabicyclo[3.2.1]octan-3-yl)-7-(5,6-dimethyl-1H-indazol-4-yl)-8-fluoro-2-(((S)-1-methylpyrrolidin-2-yl)methoxy)quinazoline]	152	57	5090
CN1CCC[C@H]1COc1nc(N2CC3CCC2CN3)c2cc(Cl)c(-c3cc(O)cc4ccccc34)c(F)c2n1 (stereo partly drawn) [Example 11, 4-((7R)-4-(2,5-diazabicyclo[2.2.2]octan-2-yl)-6-chloro-8-fluoro-2-(((S)-1-methylpyrrolidin-2-yl)methoxy)quinazolin-7-yl)naphthalen-2-ol]	16	10.4	2840
CN1CCC[C@H]1COc1nc(N2C[C@H]3CC[C@@H](C2)N3)c2ccc(-c3cc(O)cc4ccccc34)c(F)c2n1 [Example 8, 4-(4-((1R,5S)-3,8-diazabicyclo[3.2.1]octan-3-yl)-8-fluoro-2-(((S)-1-methylpyrrolidin-2-yl)methoxy)quinazolin-7-yl)naphthalen-2-ol]	3	4.3	271
CN1CCC[C@H]1COc1nc(N2CC3CCC2CN3)c2cnc(-c3cc(O)cc4ccccc34)c(F)c2n1 (stereo partly drawn) [Example 14, 4-(4-(2,5-diazabicyclo[2.2.2]octan-2-yl)-8-fluoro-2-(((S)-1-methylpyrrolidin-2-yl)methoxy)pyrido[4,3-d]pyrimidin-7-yl)naphthalen-2-ol]	36	30.8	8610
CN1CCC[C@H]1COc1nc2c(c(N3CC4CCC3CN4)n1)CCN(c1cc(O)cc3ccccc13)C2 (stereo partly drawn) [Example 16, 4-(4-(2,5-diazabicyclo[2.2.2]octan-2-yl)-2-(((S)-1-methylpyrrolidin-2-yl)methoxy)-5,8-dihydropyrido[3,4-d]pyrimidin-7(6H)-yl)naphthalen-2-ol]	300	152	5950
